Measurements reported in patent publication EP3409266A1, “ACTIVE INGREDIENT COMBINATIONS OF GLYCERYL GLUCOSIDES AND ONE OR MORE MILD SURFACTANTS” (Beiersdorf AG, priority 2010, dated 2012).

Test system: Kalbserythrozyten
Assay: RBC test: haemolysis (release of haemoglobin, H50)
Type: cell-based, Kalb
Details: bovine, 10 min, pH 7.4
Description: (§1) Der Standard RBC-Test dient zur Abschätzung von in-vivo Augenschleimhautreizpotentialen von Tensiden und tensidhaltigen Produkten. Das Verfahren beruht auf der Tatsache, dass Tenside stark mit Zellmembranen und Proteinen interagieren. Beide Effekte werden photometrisch durch Analyse des natürlichen Blutfarbstoffs Oxyhämoglobin ([…]) bestimmt. Im Gegensatz zu anderen zellbasierten Systemen ist der RBC-Test in der Lage zwischen Schädigungen der Zellmembran (Hämolyse) und Proteindenaturierung (Denaturierungsindex) zu differenzieren.
Ein definiertes Aliquot isolierter Kalbserythrozyten wird mit einer Reihe steigender Konzentrationen des zu untersuchenden Musters (Stammlösung für Rohstoffe 0,1 Gew.-% Aktivgehalt der waschaktiven Substanz in PBS; Stammlösung für Fertigprodukte 1:100 w/v in PBS) für 10 Minuten unter Schütteln bei RT inkubiert. PBS ist ein üblicher Standard-PhosphatPuffer (pH 7,4) mit folgender Zusammensetzung:
Die Inkubationsperiode wird durch schnelle Hochgeschwindigkeitszentrifugation beendet. Nach Zentrifugation werden die gewonnenen Überstände photometrisch auf ihren Gehalt an freigesetztem Hämoglobin (HbO2) bei 530 nm analysiert. Daraus wird der relative Hämolysegrad berechnet und die Konzentrations-Response-Kurve mit dem H50-Wert [µl/ml] als Kenngröße bestimmt. Dieser gibt die Konzentration des Prüfmusters an, bei der 50% des Hämoglobins freigesetzt werden. Je höher der Wert, desto verträglicher ist das untersuchte Muster.

Molecule | H50
CCCCCCCCCCCC(=O)NC(CCC(=O)O)C(=O)O (centres unmarked) [Natriumlauroylglutamat] | 312,3 µl/ml
Cocamidopropylbetain | 56,1 µl/ml
Decylglucosid | 127,7 µl/ml
Dinatrium PEG-5 Laurylcitratsulfosuccinat | 645 µl/ml
Dinatriumcocoamphodiacetat | 36,4 µl/ml
Dinatriumcocoylglutamat | 136,6 µl/ml
Dinatriumlaurylethersulfosuccinat | 167,7 µl/ml
Laurylglucosid | 84,1 µl/ml
Natriumcocoamphoacetat | 26 µl/ml
PEG-7 Glycerylcocoat | 115,2 µl/ml

Same assay, conditions: raw material, stock 0,1 Gew.-% active content in PBS, 10 min, RT; higher = better tolerated

Molecule | H50 [µl/ml]
CCCCCCCCCCCC(=O)N(C)CC(=O)O [Natriumlauroylsarcosinat] | 458

Target: T1, HbO2 (Bos taurus, UniProt P01966+P02070)
T1 construct: wird im Vergleich zum nativen HbO2 gemessen; endogenous in cells; host or cells: isolated calf erythrocytes (Kalbserythrozyten)
Assay: RBC test: HbO2 denaturation (denaturation index DI)
Type: cell-based
Details: raw material 0,1 Gew.-% active content in PBS, 10 min, RT; 100% standard Natriumlaurylsulfat; lower = better tolerated
Description: as §1
Ein definiertes Aliquot isolierter Kalbserythrozyten wird mit einer fixen Konzentration des Prüfmusters (Konzentration für Rohstoffe 0,1 Gew.-% Aktivgehalt der waschaktiven Substanz in PBS; Konzentration für Fertigprodukte 1% w/v in PBS) für 10 Minuten unter Schütteln bei RT inkubiert und dann zentrifugiert. Die Änderung der spektralen Absorption bei 575 nm und 540 nm wird im Vergleich zum nativen HbO2 gemessen. Aus dem Verhältnis der Absorptionswerte zueinander wird der Denaturierungsindex DI [%] berechnet. Als 100%-Standard dient Natriumlaurylsulfat (0,1% Aktivgehalt).
Je geringer der Wert, desto verträglicher ist das untersuchte Muster.

T1 sequence (P01966 2-142 limits assumed): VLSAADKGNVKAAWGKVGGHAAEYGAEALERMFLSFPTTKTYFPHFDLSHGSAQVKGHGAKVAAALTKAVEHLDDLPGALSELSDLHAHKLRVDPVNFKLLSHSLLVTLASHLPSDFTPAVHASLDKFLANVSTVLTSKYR
T1 sequence (P02070 whole entry): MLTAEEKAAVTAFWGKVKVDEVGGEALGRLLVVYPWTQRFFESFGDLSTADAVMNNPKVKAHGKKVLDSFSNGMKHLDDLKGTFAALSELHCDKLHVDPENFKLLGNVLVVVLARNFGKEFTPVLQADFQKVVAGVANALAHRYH

Molecule | DI
CCCCCCCCCCCC(=O)NC(CCC(=O)O)C(=O)O (centres unmarked) [Natriumlauroylglutamat] | 10,5%
CCCCCCCCCCCC(=O)N(C)CC(=O)O [Natriumlauroylsarcosinat] | 58,4%
Cocamidopropylbetain | 2,6%
Decylglucosid | 3,9%
Dinatrium PEG-5 Laurylcitratsulfosuccinat | 5,5%
Dinatriumcocoamphodiacetat | 1,5%
Dinatriumcocoylglutamat | 77,9%
Dinatriumlaurylethersulfosuccinat | 40,4%
Laurylglucosid | 3,2%
Natriumcocoamphoacetat | 1%
PEG-7 Glycerylcocoat | 4,9%

Test system: Kalbserythrozyten
Assay: not given
Type: cell-based, Kalb
Details: not given
Description: Die Milde eines Tensides oder Tensidsystems lässt sich durch die Bestimmung der Quotienten aus Hämolysewert und Denaturierungsindex charakterisieren. Der Quotient L/D repräsentiert das Verhältnis von Hämolysewert (L) zu Denaturierungsindex (D) und wird durch den Standard RBC-Test bestimmt.
as §1
Der Quotient (L/D-Wert) stellt das Verhältnis der Kenngrößen von Hämolyse (H50) und Denaturierung (DI) dar und wird zur Charakterisierung und Klassifizierung der untersuchten Prüfmuster verwendet.
Tenside oder Tensidmischungen werden erfindungsgemäß als mild angesehen, wenn der L/D-Wert mindestens 1 beträgt. Zum Vergleich dazu hat das häufig in Reinigungsprodukten eingesetzte Natriumlaurylethersulfat einen L/D-Wert von ca. 0,3 und wird als reizend klassifiziert. Sofern in einer Tensidmischung Natriumlaurylethersulfat eingesetzt wird, hat die resultierende Tensidmischung erfindungsgemäß einen L/D-Wert von mindestens 1.

Molecule | L/D | Klassifizierung nach L/D-Wert
CCCCCCCCCCCC(=O)NC(CCC(=O)O)C(=O)O (centres unmarked) [Natriumlauroylglutamat] | 29,9 | 
CCCCCCCCCCCC(=O)N(C)CC(=O)O [Natriumlauroylsarcosinat] | 7,84 | 
Cocamidopropylbetain | 21,65 | 
Decylglucosid | 33,4 | 
Dinatrium PEG-5 Laurylcitratsulfosuccinat | 117 | 
Dinatriumcocoamphodiacetat | 24 | 
Dinatriumcocoylglutamat | 1,75 | 
Dinatriumlaurylethersulfosuccinat | 4,15 | 
Laurylglucosid | 20,4 | 
Natriumcocoamphoacetat | 26 | 
Natriumlaurylethersulfat [reference compound] | ca. 0,3 | reizend
PEG-7 Glycerylcocoat | 23,5 | 
